The source of these data is ChEMBL document CHEMBL1143732, “3-Hydroxy-1,5-dihydro-pyrrol-2-one derivatives as advanced inhibitors of HIV integrase” (Bioorg Med Chem, 2007).

The nature of experiment [1]: Inhibition of HIV integrase by MWPA-Mn enzymatic assay. More on the design: species or system Human immunodeficiency virus.
Experiment [2] is described as follows: Inhibition of HIV integrase by MWPA-Mg enzymatic assay. Also noted: species or system Human immunodeficiency virus.
In experiment [3] the test system is Human immunodeficiency virus. Kind of experiment: Antiviral activity against HIV. It counts as functional, organism-based. The settings on record: Human immunodeficiency virus 1.

With `CNC(=O)/C(O)=C/c1cc(CCc2ccccc2)ncn1`, the figures for the concentration for half-maximal inhibition (IC50) in experiment [1] and in experiment [2] were 39000 nM and 11000 nM, respectively. This compound gave an EC50 in experiment [3] of 24000 nM.
The like results for `O=C(/C(O)=C/c1cc(CCc2ccccc2)ncn1)N1CCOCC1` were, in that order, 262000 nM, 236000 nM and more than 59000 nM.
The like results for `CN1CC(c2cc(CCc3ccc(F)cc3)ncn2)=C(O)C1=O` were, in that order, 320 nM, 320 nM and 800 nM.
The like results for `CN1CC(c2cc(OCc3ccc(F)cc3)ncn2)=C(O)C1=O` were, in that order, 300 nM, 63 nM and 320 nM.
Compound `O=C1C(O)=C(c2cc(OCc3ccc(F)cc3)ncn2)CN1CCO` showed an IC50 in experiment [2] of 46 nM. In addition, a half-maximal effect in experiment [3] (EC50) was put at 380 nM.
The like results for `COCCN1CC(c2cc(OCc3ccc(F)cc3)ncn2)=C(O)C1=O` were, in that order, 53 nM and 470 nM.
The compound `CC(C)N1CC(c2cc(OCc3ccc(F)cc3)ncn2)=C(O)C1=O` returned an IC50 in experiment [2] of 82 nM. For the same compound, a half-maximal effect in experiment [3] (EC50) was put at 1400 nM.
The like results for `COc1ccc(CN2CC(c3cc(OCc4ccc(F)cc4)ncn3)=C(O)C2=O)cc1` were, in that order, 140 nM and 3300 nM.
Compound `O=C1NCC(C(=O)c2ccc(Cc3ccc(F)cc3)o2)=C1O` gave a half-maximal inhibitory concentration (IC50) in experiment [2] of 100 nM. The compound also showed an EC50 in experiment [3] of 930 nM.
The like results for `CC(C)N1CC(C(=O)c2ccc(Cc3ccc(F)cc3)o2)=C(O)C1=O` were, in that order, 79 nM and 550 nM.
`COCCN1CC(C(=O)c2ccc(Cc3ccc(F)cc3)o2)=C(O)C1=O` registered an IC50 in experiment [2] of 160 nM. This compound came in with an EC50 in experiment [3] of 670 nM.
The like results for `COc1ccc(N2CC(C(=O)c3ccc(Cc4ccc(F)cc4)o3)=C(O)C2=O)cc1` were, in that order, 170 nM and 13000 nM.
As for `O=C(O)/C(O)=C/c1cc(CCc2ccccc2)ncn1`, the half-maximal inhibitory concentration (IC50) stood at 37 nM in experiment [1] and 9600 nM in experiment [2]. In experiment [3], this compound gave a half-maximal effective concentration (EC50) of 34000 nM.
As to `NC(=O)/C(O)=C/c1cc(CCc2ccccc2)ncn1`, the values for the IC50 in experiment [1] and in experiment [2] were 71000 nM and 6700 nM, respectively. Besides, the EC50 in experiment [3] came to 49000 nM.
In the case of `O=C(O)/C(O)=C/c1ccc(Oc2ccc(F)cc2)cn1`, the IC50 in experiment [1] worked out at 110 nM; in experiment [2], 8700 nM. This compound also showed an EC50 in experiment [3] of more than 73000 nM.
Compound `O=C(C1=C(O)C(=O)N(Cc2ccccc2)C1)c1ccc(Cc2ccc(F)cc2)o1` returned an IC50 in experiment [2] of 180 nM. In experiment [3], this compound registered a 50% effective concentration (EC50) of 7400 nM.
`O=C(C1=C(O)C(=O)N(CCN2CCOCC2)C1)c1ccc(Cc2ccc(F)cc2)o1`: in experiment [2], the IC50 turned out to be 180 nM. The compound also gave a concentration giving a half-maximal response (EC50) in experiment [3] of 3400 nM.
Take `O=C(O)/C(O)=C/c1cc(OCc2ccc(F)cc2)ccn1`: the concentration for half-maximal inhibition (IC50) in experiment [1] was determined as 14 nM; in experiment [2], 93 nM. The compound further registered a concentration for a half-maximal effect (EC50) in experiment [3] of 7900 nM.
In experiment [2], `O=C(C1=C(O)C(=O)N(C2CCCC2)C1)c1ccc(Cc2ccc(F)cc2)o1` came in with an IC50 of 130 nM. In experiment [3], the concentration giving a half-maximal response (EC50) is 1500 nM.
Consider `CN1CC(c2ccc(Cc3ccc(F)cc3)cn2)=C(O)C1=O`, for which the values for the IC50 in experiment [1] and in experiment [2] were less than 21 nM and 37 nM, respectively. Besides, the concentration for a half-maximal effect (EC50) in experiment [3] is 170 nM.
The like results for `O=C(O)/C(O)=C/c1cc(CCc2ccc(F)cc2)ccn1` were, in that order, 59 nM, 1800 nM and 27000 nM.
`O=C1NCC(c2cc(OCc3ccc(F)cc3)ncn2)=C1O` showed a half-maximal inhibitory concentration (IC50) in experiment [2] of 40 nM. In addition, the EC50 in experiment [3] worked out at 240 nM.
The like results for `CN1CC(C(=O)c2ccc(Cc3ccc(F)cc3)o2)=C(O)C1=O` were, in that order, 82 nM and 630 nM.
In experiment [2], `O=C(C1=C(O)C(=O)N(CCO)C1)c1ccc(Cc2ccc(F)cc2)o1` registered a 50% inhibitory concentration (IC50) of 75 nM. Moreover, the midpoint of the response in experiment [3], the EC50, lay at 5500 nM.
Consider `O=C(O)/C(O)=C/c1ccc(OCc2ccc(F)cc2)cn1`, for which the half-inhibitory concentration (IC50) in experiment [1] amounted to 66 nM; in experiment [2], 480 nM. In experiment [3], a half-maximal response (EC50) required 45700 nM.
The like results for `O=C(O)/C(O)=C/c1ccc(Cc2ccc(F)cc2)cn1` were, in that order, 95 nM, 1400 nM and 8800 nM.
The like results for `CN1CC(c2ccc(OCc3ccc(F)cc3)cn2)=C(O)C1=O` were, in that order, less than 21 nM, 30 nM and 180 nM.
The like results for `CN1CC(c2ccc(Oc3ccc(F)cc3)cn2)=C(O)C1=O` were, in that order, less than 21 nM, 80 nM and 1900 nM.
`CCCN1CC(c2cc(OCc3ccc(F)cc3)ncn2)=C(O)C1=O` registered an IC50 in experiment [2] of 270 nM. The compound further returned an EC50 in experiment [3] of 9000 nM.
In experiment [3], `O=C(/C=C(\O)c1nc[nH]n1)c1ccc(Cc2ccc(F)cc2)o1` [S-1360] yielded an EC50 of 200 nM.

One may read the IC50 as the point on the concentration scale where inhibition reaches its midpoint. A lower IC50 goes with inhibition by little substance. Usually EC50 stands for the concentration at which the effect is half-maximal. Low readings indicate greater potency, high ones weaker potency.
